Reference: US5470737A, “Stably-transformed cells expressing human thiopurine methyltransferase” (priority 1994, dated 1995)
“Also recorded” adds a separate entry of the source.

Key:
[1] = tested on: patients with genetically low or undetectable RBC TPMT activity; conditions: patients lacking or with low TPMT activity; cited from earlier work
[2] = molecular target: T1, human kidney TPMT (Homo sapiens, UniProt P51580); conditions: read-out: Apparent Km value for 6-MP; cited from earlier work
T1 construct: to assay the enzyme in human kidney preparations; host or cells: human kidney
T1 sequence (P51580 1-245): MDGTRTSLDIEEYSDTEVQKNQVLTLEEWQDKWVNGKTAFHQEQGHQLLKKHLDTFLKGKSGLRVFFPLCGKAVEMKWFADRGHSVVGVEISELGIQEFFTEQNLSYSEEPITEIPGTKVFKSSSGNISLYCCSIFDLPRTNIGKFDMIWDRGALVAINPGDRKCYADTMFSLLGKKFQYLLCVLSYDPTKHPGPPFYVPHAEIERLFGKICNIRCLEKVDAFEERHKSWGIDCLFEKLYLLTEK

[3] = tested on: TPMT; conditions: cited from earlier work
[4] = tested on: human liver TPMT; conditions: read-out: Apparent Km value for 6-MP; cited from earlier work
[5] = molecular target: T1, human kidney TPMT; experiment: DMHBA inhibition of TPMT activity, human kidney; assay type: biochemical; conditions: DMHBA 0.01 μM to 10 mM
Protocol: (§1) The University of Wisconsin Genetics Computer Group software package was used to analyze sequence information and to make comparisons between the sequence of the TPMT cDNA clone and the sequences of other cloned proteins. The GenBank Genetics Sequence Data Bank and the EMBL Nucleotide Sequence Database were used to search for nucleotide homologies, whereas the Swiss-Prot Protein Sequence Database was used to search for protein structural homologies. IC50 values were calculated with the GraphPAD Inplot program (GraphPAD, San Diego, Calif.).
Renal tissue was obtained either during autopsy or from patients undergoing clinically indicated nephrectomies. Hepatic tissue was obtained from patients who underwent clinically indicated partial hepatectomies for the removal of primary or metastatic hepatic tumors. All tissue was obtained under guidelines approved by the Mayo Clinic Institutional Review Board. Macroscopically normal tissue was stored at -80° C., conditions under which TPMT activity is stable (C. L. Szumlanski et al., Pharmacogenetics, 2, 148 (1992); J. A. Van Loon et al., Drug Met. Disposit., 18, 632 (1990)). […]
TPMT activity in renal tissue was measured by the method of R. M. Weinshilboum et al., in Clin. Chim. […]

[6] = molecular target: T1, human kidney TPMT; conditions: cited from earlier work
[7] = molecular target: T2, TPMT expressed in COS-1 cells transfected with T84 cell TPMT cDNA (Homo sapiens, UniProt P51580); experiment: DMHBA inhibition of TPMT activity expressed in transfected COS-1 cells; assay type: biochemical; conditions: COS-1 cells transfected with cDNA clone; FIG. 6
T2 sequence (P51580 1-245): T1 sequence (P51580 1-245)
Protocol: as §1
(§2) TPMT activity in renal tissue was measured by the method of R. M. Weinshilboum et al., in Clin. Chim. Acta, 85, 323 (1978) as modified by L. C. Woodson et al., Biochem. Pharmacol., 32, 819 (1983) to assay the enzyme in human kidney preparations. […] Ado-Met as the methyl donor. Assay conditions for the measurement of TPMT in T84 human colon carcinoma cells and in COS-1 cells were identical with those used to measure the enzyme activity in human renal tissue. One unit of TPMT activity represented the formation of 1 nmol of 6-MMP per hr of incubation at 37° C.
Simian COS-1 cells were then plated in 100-mm dishes at a density of 1.5-1.8×10^6 cells/dish in DMEM with 10% fetal calf serum, and were allowed to grow overnight. Three dishes of cells were used for each transfection. […]

[8] = molecular target: T3, T84 cell TPMT (Homo sapiens, UniProt P51580); experiment: DMHBA inhibition of TPMT activity, T84 cells; assay type: biochemical; conditions: DMHBA 0.01 μM to 10 mM
T3 construct: Cytosol from T84 cells did contain TPMT enzymatic activity; host or cells: T84 human colon carcinoma cells
T3 sequence (P51580 1-245): T1 sequence (P51580 1-245)
Protocol: as §1, §2
T84 human colon carcinoma cells (American Type Culture Collection, Rockville, Md.) were grown to confluence in an equal volume mixture of Dulbecco's modified Eagle's medium (DMEM) and Ham's F12 media with 5% fetal calf serum. […]

[9] = tested on: human liver TPMT; conditions: cited from earlier work

SMILES | risk of myelosuppression (in words) [1] | Km [2] [µM] | substrate for TPMT (in words) [3] | Km [4] [µM] | IC50 [5] [µM] | inhibition of human kidney TPMT activity (in words) [6] | IC50 value, TPMT activity expressed in COS-1 cells (in words) [7] | IC50 [8] [µM] | inhibition of human liver TPMT activity (in words) [9] | IC50 ([9]; read-out: DMHBA IC50) [µM]
Sc1ncnc2nc[nH]c12 [6-MP, 6-mercaptopurine] | even more at risk for the occurrence of severe myelosuppression; also recorded: greatly increased risk for the development of life-threatening thiopurine-induced myelosuppression | 300 | substrates for TPMT | 580 |  |  |  |  |  | 
COc1cc(C(=O)O)cc(O)c1OC [DMHBA, 3,4-dimethoxy-5-hydroxybenzoic acid] |  |  |  |  | 7.8 | known to be inhibited | nearly identical to that of the TPMT present in T84 cells | 6.6 | known to be inhibited | 8.5
